{"source": "paper PMC4667193", "about": "(Scientific Reports, 2015)", "key": {"[1]": {"tested_on": "rat primary hippocampal cell culture", "experiment": "MTT viability assay, AEME-induced neurotoxicity", "format": "cell-based", "details": "10 nM antagonist/inhibitor added 30 minutes prior to 10^−3 M AEME, 24 hours, % of control", "procedure": "Neuronal viability was evaluated in the hippocampal cell culture using the 3-(4,5-dimethylthiazol-2-yl)-2,5-diphenyltetrazolium bromide (MTT; Sigma) reduction assay, with some modification. Briefly, after 24 hours of incubation with 10^−3 M AEME in the absence and in the presence of 10 nM pirenzepine hydrochloride (M1 selective antagonist; Sigma), 10 nM p-F-HHSiD (M3 selective antagonist; Sigma) and the specific inhibitor of different isoforms of PLC U73122 (10 nM)[55] (Sigma), all the medium was removed, and 100 μL of MTT solution, containing 5 mg/mL MTT in PBS and neurobasal medium without phenol red (1:9, v/v) were added. After 3 hours of incubation with MTT at 37 °C in a humidified atmosphere of 5% CO2, the MTT solution was removed and 200 μL of dimethyl sulfoxide was added to each well. After 30 minutes of shaking, the absorbance was measured at 570 nm in a multiwell plate reader (BioTek Synergy H1 Hybrid Reader). Potassium chloride (250 mM) was used as a positive control of neuronal death. Muscarinic antagonists, as well as the iPLC, were added 30 minutes prior to incubation with AEME. The antagonist concentration used was near the pKi[25][56]. A control containing 0.002% DMSO was used, since the iPLC stock solution was previously dissolved in this solvent. The assay was performed in quadruplicate, and the results were expressed as a percentage of the control value."}, "[2]": {"tested_on": "rat primary hippocampal cell culture", "experiment": "total [^3H]inositol phosphate accumulation in hippocampal cells", "format": "cell-based", "details": "10^−8 to 10^−3 M", "procedure": "Hippocampal cells (1 × 10^6 cells/well) were allowed to equilibrate for 10 minutes with a nutrient solution of the following composition (mM): NaCl 157.00; KCl 5.60; CaCl2 0.27; MgCl2 3.00; NaHCO3 1.80; glucose 5.50 (pH 7.0–7.2) at 37 °C under constant shaking. Cells were incubated with 5 μCi of myo[^3H]inositol (specific activity 18.0 Ci/mmol) for 80 minutes, and lithium chloride (10 mM) for additional 30 minutes. Afterwards, the cells were incubated in the absence (basal level) and in the presence of carbachol (positive control) and AEME (10^−8 to 10^−3 M) for 10 minutes. Cells were removed from the plate using a 0.1 M NaOH solution and washed three times with nutrient solution, transferred to 2 mL of methanol:chloroform (2:1 v-v) at 4 °C and homogenized with a Ultra-Turrax T25 homogenizer at 9500 rpm. Chloroform (0.62 mL) and H2O (0.93 mL) were added to the homogenate, and the solution was centrifuged for 5 minutes at 1,000× g to separate aqueous and organic phases. Total [^3H]inositol phosphate was measured as previously described by Ascoli et al.[45] with slight modification. The aqueous layer was neutralized with 0.1 M HCl and then mixed with 1 mL anion-exchange resin (Dowex AG-X8, formate form, 200–400 mesh), allowed to equilibrate for 30 minutes at room temperature, under agitation, and centrifugated at 1,000× g, for 5 minutes at 4 °C. The resin was then washed sequentially, with 10 mM myo-inositol (2 mL) and 5 mM sodium tetraborate/60 mM sodium formate (2 mL). The resin was incubated for 30 minutes at room temperature with 2 mL of 0.1 M formic acid/1 M ammonium formate). The total [^3H]inositol phosphate was eluted and placed in scintillation vials containing OptiPhase HiSafe 3. The amount of radioactivity was determined in scintillation β-counter (LS 6500 IC, Beckman). Total [^3H]inositol phosphate was expressed as percentage above basal level."}}}
{"smiles": "COc1ccc2c(c1)CC[C@@H]1[C@@H]2CC[C@]2(C)[C@@H](NCCCCCCN3C(=O)C=CC3=O)CC[C@@H]12", "note": "[U73122]", "values": [{"measurement": "viable cells", "setting": "[1]", "result": 102.6, "unit": "%"}]}
{"smiles": "CN1CCN(CC(=O)N2c3ccccc3C(=O)Nc3cccnc32)CC1", "note": "[pirenzepine]", "values": [{"measurement": "viable cells", "setting": "[1]", "result": 98.4, "unit": "%"}]}
{"smiles": "C[N+](C)(C)CCOC(N)=O", "note": "[carbachol, reference compound]", "values": [{"measurement": "effect on total [^3H]inositol phosphate", "setting": "[2]", "result": "concentration-dependent increase"}, {"measurement": "concentration giving maximum inositol phosphate accumulation", "setting": "[2]; 10 minutes", "result": "10^−5 M"}]}
{"smiles": "Cl.O[Si](CCCN1CCCCC1)(c1ccc(F)cc1)C1CCCCC1", "note": "(centres unmarked) [p-F-HHSiD, p-fluorohexahydro-sila-difenidol hydrochloride]", "values": [{"measurement": "viable cells", "setting": "[1]", "result": 85.4, "unit": "%"}]}
